According to ChEMBL document CHEMBL1155647, “New eudesmane sesquiterpenes from Plectranthus cylindraceus” (J Nat Prod, 2000):
Calls of active or inactive are those of the source. The calls are words filed in the database; no cut-off is given here.

Test system: Mycolicibacterium smegmatis
Assay: Antimicrobial activity against Mycobacterium smegmatis ATCC 35797 at 100 ug/mL by agar dilution assay
Format: functional, organism-based

SMILES | Activity
CC(=O)O[C@@H]1[C@H](C(C)C)CC[C@@]2(CO)CC(=O)C=C(C)[C@@H]12 | inactive
CC(=O)OC[C@@]12CC[C@@H](C(C)C)[C@@H](OC(C)=O)[C@@H]1C(C)=CC(=O)C2 | inactive
COc1cc(O)c2c(=O)c(OC)c(-c3ccc(O)c(OC)c3)oc2c1 | inactive
CC(=O)OC[C@@]12CC[C@@H](C(C)C)[C@@H](O)[C@@H]1C(C)=CC(=O)C2 | inactive
COc1cc2oc(-c3ccc(O)c(O)c3)c(OC)c(=O)c2c(O)c1OC | inactive
COc1ccc(-c2oc3cc(OC)c(OC)c(O)c3c(=O)c2OC)cc1O | inactive

Test system: NCI-H460
Assay: Anticancer activity against human NCI-H460 cells
Format: functional, cell-based

SMILES | Activity
CC(=O)O[C@@H]1[C@H](C(C)C)CC[C@@]2(CO)CC(=O)C=C(C)[C@@H]12 | inactive
CC(=O)OC[C@@]12CC[C@@H](C(C)C)[C@@H](OC(C)=O)[C@@H]1C(C)=CC(=O)C2 | inactive

Test system: Pseudomonas aeruginosa
Assay: Antimicrobial activity against Pseudomonas aeruginosa ATCC 15442 at 100 ug/mL by agar dilution assay
Format: functional, organism-based

SMILES | Activity
CC(=O)O[C@@H]1[C@H](C(C)C)CC[C@@]2(CO)CC(=O)C=C(C)[C@@H]12 | inactive
CC(=O)OC[C@@]12CC[C@@H](C(C)C)[C@@H](OC(C)=O)[C@@H]1C(C)=CC(=O)C2 | inactive
COc1cc(O)c2c(=O)c(OC)c(-c3ccc(O)c(OC)c3)oc2c1 | inactive
CC(=O)OC[C@@]12CC[C@@H](C(C)C)[C@@H](O)[C@@H]1C(C)=CC(=O)C2 | inactive
COc1cc2oc(-c3ccc(O)c(O)c3)c(OC)c(=O)c2c(O)c1OC | inactive
COc1ccc(-c2oc3cc(OC)c(OC)c(O)c3c(=O)c2OC)cc1O | inactive

Test system: MCF7
Assay: Anticancer activity against human MCF7 cells
Format: functional, cell-based

SMILES | Activity
CC(=O)O[C@@H]1[C@H](C(C)C)CC[C@@]2(CO)CC(=O)C=C(C)[C@@H]12 | inactive
CC(=O)OC[C@@]12CC[C@@H](C(C)C)[C@@H](OC(C)=O)[C@@H]1C(C)=CC(=O)C2 | inactive

Test system: Bacillus subtilis
Assay: Antimicrobial activity against Bacillus subtilis ATCC 6633 at 100 ug/mL by agar dilution assay
Format: functional, organism-based

SMILES | Activity
CC(=O)O[C@@H]1[C@H](C(C)C)CC[C@@]2(CO)CC(=O)C=C(C)[C@@H]12 | inactive
CC(=O)OC[C@@]12CC[C@@H](C(C)C)[C@@H](OC(C)=O)[C@@H]1C(C)=CC(=O)C2 | inactive
COc1cc(O)c2c(=O)c(OC)c(-c3ccc(O)c(OC)c3)oc2c1 | inactive
CC(=O)OC[C@@]12CC[C@@H](C(C)C)[C@@H](O)[C@@H]1C(C)=CC(=O)C2 | inactive
COc1cc2oc(-c3ccc(O)c(O)c3)c(OC)c(=O)c2c(O)c1OC | inactive
COc1ccc(-c2oc3cc(OC)c(OC)c(O)c3c(=O)c2OC)cc1O | inactive

Test system: Escherichia coli
Assay: Antimicrobial activity against Escherichia coli ATCC 25922 at 100 ug/mL by agar dilution assay
Format: functional, organism-based

SMILES | Activity
CC(=O)O[C@@H]1[C@H](C(C)C)CC[C@@]2(CO)CC(=O)C=C(C)[C@@H]12 | inactive
CC(=O)OC[C@@]12CC[C@@H](C(C)C)[C@@H](OC(C)=O)[C@@H]1C(C)=CC(=O)C2 | inactive
COc1cc(O)c2c(=O)c(OC)c(-c3ccc(O)c(OC)c3)oc2c1 | inactive
CC(=O)OC[C@@]12CC[C@@H](C(C)C)[C@@H](O)[C@@H]1C(C)=CC(=O)C2 | inactive
COc1cc2oc(-c3ccc(O)c(O)c3)c(OC)c(=O)c2c(O)c1OC | inactive
COc1ccc(-c2oc3cc(OC)c(OC)c(O)c3c(=O)c2OC)cc1O | inactive

Test system: Candida albicans
Assay: Antimicrobial activity against Candida albicans ATCC 10231 at 100 ug/mL by agar dilution assay
Format: functional, organism-based

SMILES | Activity
CC(=O)O[C@@H]1[C@H](C(C)C)CC[C@@]2(CO)CC(=O)C=C(C)[C@@H]12 | inactive
CC(=O)OC[C@@]12CC[C@@H](C(C)C)[C@@H](OC(C)=O)[C@@H]1C(C)=CC(=O)C2 | inactive
COc1cc(O)c2c(=O)c(OC)c(-c3ccc(O)c(OC)c3)oc2c1 | inactive
CC(=O)OC[C@@]12CC[C@@H](C(C)C)[C@@H](O)[C@@H]1C(C)=CC(=O)C2 | inactive
COc1cc2oc(-c3ccc(O)c(O)c3)c(OC)c(=O)c2c(O)c1OC | inactive
COc1ccc(-c2oc3cc(OC)c(OC)c(O)c3c(=O)c2OC)cc1O | inactive

Test system: SF-268
Assay: Anticancer activity against human SF268 cells
Format: functional, cell-based

SMILES | Activity
CC(=O)O[C@@H]1[C@H](C(C)C)CC[C@@]2(CO)CC(=O)C=C(C)[C@@H]12 | inactive
CC(=O)OC[C@@]12CC[C@@H](C(C)C)[C@@H](OC(C)=O)[C@@H]1C(C)=CC(=O)C2 | inactive

Test system: Staphylococcus aureus
Assay: Antimicrobial activity against Staphylococcus aureus ATCC 29213 at 100 ug/mL by agar dilution assay
Format: functional, organism-based

SMILES | Activity
CC(=O)O[C@@H]1[C@H](C(C)C)CC[C@@]2(CO)CC(=O)C=C(C)[C@@H]12 | inactive
CC(=O)OC[C@@]12CC[C@@H](C(C)C)[C@@H](OC(C)=O)[C@@H]1C(C)=CC(=O)C2 | inactive
COc1cc(O)c2c(=O)c(OC)c(-c3ccc(O)c(OC)c3)oc2c1 | inactive
CC(=O)OC[C@@]12CC[C@@H](C(C)C)[C@@H](O)[C@@H]1C(C)=CC(=O)C2 | inactive
COc1cc2oc(-c3ccc(O)c(O)c3)c(OC)c(=O)c2c(O)c1OC | inactive
COc1ccc(-c2oc3cc(OC)c(OC)c(O)c3c(=O)c2OC)cc1O | inactive
